Results taken from ChEMBL document CHEMBL1201862, “PubChem BioAssay data set” (2004).
Activity calls are given as the source filed them.

How the values were obtained:
[1] = HepG2 cell cytotoxicity, dose response, cytotoxicity control for Shn3 inhibitor project, CellTiter-Glo, cherry-picked (AID 624134); type: functional, cell-based
[2] = Shn3 3'UTR reporter inhibitors, dose response, cell-based, Clone20 osteoblasts, firefly luciferase, cherry-picked (AID 624132); type: functional;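 note: firefly luciferase luminescence from reporter carrying the Shn3 3'UTR in osteoblasts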
[3] = reduction of Shn3 3'UTR firefly luciferase signal, dose response, Schnurri-3 inhibitor project, cell-based, Clone20 osteoblasts, cherry-pick, set 2 (AID 720490); type: functional;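 note: actives lower the luminescence signal as inhibitors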
[4] = control 3'UTR Renilla luciferase suppression, dose response, counter-screen for Shn3 inhibitor project, cell-based, Clone20-Shn3RL, cherry-picked (AID 624133); type: functional
[5] = HEK293 Cytotoxicity Assay Measured in Cell-Based System Using Plate Reader - 7071-01_Inhibitor_Dose_CherryPick_Activity_Set2.; type: functional
[6] = test system: HEK293; experiment: HEK293T cell cytotoxicity, dose response, cytotoxicity control, ATP luminescence, cherry-pick samples (AID 687005); type: functional, cell-based; settings: Homo sapiens;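 note: cells exposed to compound for 48 hours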
[7] = Late-stage results from the probe development effort to identify antagonists of arginine vasopressin receptor 1a (AVPR1a): fluorescence-based cell-based dose response OXTR inhibition counterscreen assay.; type: functional
[8] = biological target: Vasopressin V1b receptor (Homo sapiens, UniProt P47901); experiment: Late-stage results from the probe development effort to identify antagonists of arginine vasopressin receptor 1a (AVPR1a): fluorescence-based cell-based dose response AVPR1b inhibition counterscreen assay.; type: functional
[9] = Late-stage results from the probe development effort to identify antagonists of arginine vasopressin receptor 1a (AVPR1a): fluorescence-based cell-based dose response AVPR1a inhibition assay.; type: functional
[10] = biological target: Vasopressin V2 receptor (Homo sapiens, UniProt P30518); experiment: Late-stage results from the probe development effort to identify antagonists of arginine vasopressin receptor 1a (AVPR1a): fluorescence-based cell-based dose response AVPR2 inhibition counterscreen assay.; type: functional
[11] = A2780 ovarian cancer cell cytotoxicity, dose response, cytotoxicity control, plate reader, dry powder samples (AID 743046); type: functional, cell-based
[12] = non-specific cell cytotoxicity, dose response, cytotoxicity control for PAX8 inhibitor project, plate reader, dry powder samples (AID 743021); type: functional, cell-based
[13] = IGROV1 ovarian cancer cell cytotoxicity, dose response, PAX8 inhibitor project, plate reader, dry powder samples (AID 743043); type: functional, cell-based; settings: IGROV-1
[14] = P. falciparum Dd2 growth inhibitors, dose response, SYBR Green, cherry-picked samples (AID 1159567); type: functional, cell-based
[15] = HepG2 cell cytotoxicity, dose response, cytotoxicity control, cherry-picked samples (AID 1159577); type: functional, cell-based

Vasopressin V1b receptor, sequence (P47901 whole entry): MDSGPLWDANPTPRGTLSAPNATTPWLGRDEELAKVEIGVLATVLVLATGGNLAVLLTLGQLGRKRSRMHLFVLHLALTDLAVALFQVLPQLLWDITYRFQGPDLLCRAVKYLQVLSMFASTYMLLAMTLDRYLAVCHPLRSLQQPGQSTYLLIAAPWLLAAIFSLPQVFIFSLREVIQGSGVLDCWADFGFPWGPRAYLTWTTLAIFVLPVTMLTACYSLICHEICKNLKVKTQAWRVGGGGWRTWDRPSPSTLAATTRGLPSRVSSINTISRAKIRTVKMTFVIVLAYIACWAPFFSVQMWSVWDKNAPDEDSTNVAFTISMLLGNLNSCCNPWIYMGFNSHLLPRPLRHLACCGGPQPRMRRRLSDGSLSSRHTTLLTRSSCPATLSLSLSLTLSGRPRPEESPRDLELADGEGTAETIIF
Vasopressin V2 receptor, sequence (P30518 whole entry): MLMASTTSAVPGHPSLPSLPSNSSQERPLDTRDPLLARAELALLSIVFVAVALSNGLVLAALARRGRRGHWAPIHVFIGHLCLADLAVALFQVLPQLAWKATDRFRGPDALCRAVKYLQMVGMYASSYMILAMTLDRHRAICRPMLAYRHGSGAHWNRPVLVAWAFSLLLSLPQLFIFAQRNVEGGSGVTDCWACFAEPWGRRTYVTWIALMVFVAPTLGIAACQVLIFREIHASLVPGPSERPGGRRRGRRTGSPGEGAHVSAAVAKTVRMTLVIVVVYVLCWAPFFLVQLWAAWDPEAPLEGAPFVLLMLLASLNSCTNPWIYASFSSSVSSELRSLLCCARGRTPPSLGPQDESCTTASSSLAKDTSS

SMILES: Cc1ccc([C@@H]2CC(=O)[C@@H]3CN(S(=O)(=O)c4ccccc4C)[C@H](c4ccc(Cl)cc4)C[C@@H]3N2S(=O)(=O)c2ccc(C)cc2)cc1
- AC50 [1]: 36.7 µM (active)
- AC50 [2]: 0.361 µM (active)
- AC50 [3]: 0.672 µM (active)
- AC50 [4]: 3.29 µM (active)

SMILES: CN1C(=O)c2cc(NC(=O)NC3CCCC3)ccc2OC[C@H]2O[C@@H](CC(=O)NCC3CC3)CC[C@@H]21
- AC50 [5]: > 57 µM (inactive)
- AC50 [6]: > 57 µM (inactive)

SMILES: Cc1noc(C)c1NC(=O)Nc1ccc2c(c1)C(=O)N([C@H](C)CO)C[C@@H](C)[C@H](CN(C)S(C)(=O)=O)OCCCC[C@@H](C)O2
- AC50 [5]: 16.3 µM (active)
- AC50 [6]: 16.3 µM (active)

SMILES: O=C(C1CCN(c2ncccc2Cl)CC1)N(CC1CC1)c1ccc(Cl)cc1
- IC50 [7]: 1.7 µM (active)
- IC50 [8]: 7.1 µM (active)
- IC50 [9]: 0.0232 µM (active)
- IC50 [10]: 11.3 µM (inactive)

SMILES: Cc1ccc(-c2ccc([C@@H]3[C@@H]4CN(Cc5ccccc5F)C[C@H]3N4)cc2)cc1
- AC50 [11]: 63.6 µM (active)
- AC50 [12]: 13.2 µM (active)
- AC50 [13]: 55.4 µM (active)
- AC50 [14]: 4.05 µM (active)
- AC50 [15]: 10.3 µM (active)
